Source: ChEMBL document CHEMBL1201862, “PubChem BioAssay data set” (2004)
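Each compound was tested at five concentrations against cells in 96-well plates for 48 hours. At the GI50, growth is halved.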 Calls of active or inactive are those of the source. Rule as the data show it: active = GI50 up to about 1.1 µM and inactive = higher.

Tests used:
Assay in all cases: NCI anticancer screen, dose series, 48 h
[1] = test system: ACHN
[2] = test system: DU-145
[3] = test system: Hs-578T
[4] = test system: LOX IMVI
[5] = test system: M14
[6] = test system: MDA-MB-231
[7] = test system: MDA-MB-435
[8] = test system: NCI-H460
[9] = test system: NCI-H522
[10] = test system: OVCAR-5
[11] = test system: PC-3
[12] = test system: RXF 393
[13] = test system: SK-MEL-28
[14] = test system: SR
[15] = test system: T47D
[16] = test system: U-251
[17] = test system: DMS-273
[18] = test system: HOP-18
[19] = test system: M19-MEL
[20] = test system: XF498

Measured: GI50

CCOC(=O)C(NC(C)=O)(Nc1ccc(F)cc1)C(F)(F)F (stereo unspecified)
inactive: [1] 2.62 µM | [2] > 100 µM | [3] > 100 µM | [4] > 100 µM | [5] 20.2 µM | [6] > 100 µM | [7] 3.95 µM | [8] 7.21 µM | [9] > 100 µM | [10] 47 µM | [11] > 100 µM | [12] 40.3 µM | [13] > 100 µM | [14] 24.8 µM | [15] 23.2 µM | [16] 16.5 µM

C=CCn1c2ccccc2c2c(C)c3cnccc3c(C)c21
inactive: [17] 6.92 µM | [18] > 125 µM | [4] 6.82 µM | [19] 9.23 µM | [8] 4.47 µM | [9] 5.52 µM | [10] 6.38 µM | [12] 4.27 µM | [13] 14.8 µM | [16] 11.2 µM | [20] 12.4 µM

COC(=O)C1=C(O)C(C(=O)OC)[C@@]2(O)[C@@H](C(=O)OC)CC[C@@H]1[C@@H]2C(=O)OC (stereo partly specified)
inactive: [1] 39.2 µM | [2] 44.7 µM | [3] 11.1 µM | [4] 21.3 µM | [5] 22.6 µM | [6] 25.1 µM | [7] 18.2 µM | [8] 16.1 µM | [9] 10.6 µM | [10] 28.2 µM | [12] 12.2 µM | [13] 27.9 µM | [14] 14.9 µM | [15] 54.2 µM | [16] 22.3 µM

COc1cc(/C=C(/C#N)C(N)=O)ccc1O
inactive: [17] > 100 µM | [18] > 40.7 µM | [4] > 100 µM | [19] > 100 µM | [8] > 100 µM | [9] > 100 µM | [10] > 100 µM | [13] > 100 µM | [16] > 100 µM | [20] > 100 µM

Cn1cnc(/C=C/C#N)c1
inactive: [1] > 100 µM | [5] > 100 µM | [6] > 100 µM | [7] > 100 µM | [8] > 100 µM | [9] > 100 µM | [10] > 100 µM | [11] > 100 µM | [12] > 100 µM | [13] > 100 µM | [14] > 100 µM | [16] > 100 µM

COc1nc(N)c(C(=O)CCl)c(=O)n1C
inactive: [1] 20.6 µM | [18] 16.4 µM | [4] 5.28 µM | [5] > 10 µM | [8] 19 µM | [10] 20.2 µM | [12] 7.35 µM | [13] 12 µM | [14] 15.3 µM | [16] 15.5 µM | [20] 16.4 µM

CC1(C23CC4CC(CC(C4)C2)C3)n2c(=O)n(-c3ccccc3)c(=O)n2C1(C)C12CC3CC(CC(C3)C1)C2 (stereo unspecified)
inactive: [1] > 100 µM | [2] > 100 µM | [3] 18.8 µM | [5] > 100 µM | [6] > 100 µM | [7] > 100 µM | [8] > 100 µM | [10] > 100 µM | [11] > 100 µM | [13] > 100 µM | [14] > 100 µM | [15] > 100 µM | [16] > 100 µM

C=CC12CN(C)C3C4COC(CC41)C1(C(=O)Nc4ccccc41)C32 (stereo unspecified)
inactive: [17] > 200 µM | [18] > 200 µM | [4] > 150 µM | [19] > 148 µM | [8] 166 µM | [9] 44.7 µM | [10] > 200 µM | [12] > 179 µM | [13] 175 µM | [16] > 156 µM | [20] 21.5 µM

O=C(O)CN(CC(=O)O)C1CCCCC1N(CC(=O)O)CC(=O)NCCN=C=S (stereo unspecified)
inactive: [1] > 100 µM | [2] > 100 µM | [3] > 100 µM | [4] > 100 µM | [5] > 100 µM | [6] > 100 µM | [7] > 100 µM | [8] > 100 µM | [9] > 100 µM | [10] > 100 µM | [11] > 100 µM | [12] > 100 µM | [13] > 100 µM | [15] > 100 µM | [16] > 100 µM

CC(C)(C)C1(c2ccc(C3(c4ccccc4)Oc4ccccc4S3)[nH]2)Oc2ccccc2S1 (stereo unspecified)
inactive: [1] > 100 µM | [17] > 100 µM | [18] > 100 µM | [4] > 100 µM | [5] > 100 µM | [19] > 100 µM | [8] > 100 µM | [9] > 100 µM | [10] > 100 µM | [12] > 100 µM | [16] > 100 µM | [20] 32.5 µM

COc1ccc(C(=O)c2c(-c3ccccc3NC(=O)C(F)(F)F)[nH]c3ccccc23)cc1
inactive: [1] 3.16 µM | [2] 5.18 µM | [3] 18.1 µM | [4] 4.35 µM | [5] 14.3 µM | [6] 7.28 µM | [7] 9.89 µM | [8] 4.26 µM | [9] 7.33 µM | [10] 12.5 µM | [11] 5.92 µM | [13] 13.6 µM | [14] 2.81 µM | [15] 1.47 µM | [16] 2.56 µM

N/C(=N\O)N/N=C\c1c(O)cc(O)cc1O
inactive: [17] 14.3 µM | [18] > 64 µM | [4] 60.8 µM | [19] > 71.8 µM | [8] 49.5 µM | [9] 39.7 µM | [10] > 100 µM | [12] > 100 µM | [13] > 100 µM | [16] 41.6 µM

Cc1[nH]c(=O)[nH]c(=O)c1/C=C/C(=O)NC(CO)C[S+]([O-])Cc1ccccc1 (stereo unspecified)
inactive: [17] > 300 µM | [18] > 289 µM | [4] > 300 µM | [19] > 300 µM | [8] > 300 µM | [9] > 300 µM | [10] > 300 µM | [12] > 300 µM | [13] > 300 µM | [16] > 300 µM | [20] > 300 µM

COc1cccc(NC(=O)N/C(=C/c2ccc(N(CCC#N)CCC#N)cc2)NC(=O)c2cc([N+](=O)[O-])ccc2Cl)c1
inactive: [1] > 100 µM | [17] > 100 µM | [18] > 100 µM | [4] 71.4 µM | [19] > 100 µM | [9] 26.5 µM | [10] > 100 µM | [12] > 100 µM | [13] 64 µM | [14] 10.1 µM | [16] > 100 µM | [20] > 100 µM

CCOC(=O)/C(=N/Nc1ccc(C)cc1)N1C(=S)N(C)N=C(C)C=C1S
inactive: [1] > 100 µM | [2] > 100 µM | [3] 25.7 µM | [5] > 100 µM | [6] 32.7 µM | [7] > 100 µM | [8] > 100 µM | [9] > 100 µM | [10] > 100 µM | [12] 41.7 µM | [13] > 100 µM | [14] > 100 µM | [15] > 100 µM | [16] 24.1 µM

COc1cc2c(cc1OC)C1Cc3sccc3CN1CC2 (stereo unspecified)
inactive: [1] > 100 µM | [17] > 100 µM | [18] > 100 µM | [4] > 100 µM | [5] 72.4 µM | [19] > 100 µM | [8] > 100 µM | [9] > 100 µM | [10] > 100 µM | [12] > 100 µM | [14] 88.9 µM | [16] > 100 µM | [20] > 100 µM

O=C1c2ccccc2OCC1/C=N/O (stereo unspecified)
inactive: [17] 99.8 µM | [18] > 100 µM | [4] 31.3 µM | [19] 70.1 µM | [8] > 100 µM | [9] 24.9 µM | [10] > 100 µM | [12] 32.4 µM | [13] 51.6 µM | [16] > 100 µM | [20] > 100 µM

O=c1c(Cc2ccc(Cc3c(O)oc4ccccc4c3=O)cc2)c(O)oc2ccccc12
inactive: [2] > 100 µM | [3] > 100 µM | [4] > 100 µM | [5] > 100 µM | [6] > 100 µM | [7] > 100 µM | [8] > 100 µM | [10] > 100 µM | [11] > 100 µM | [12] > 100 µM | [13] > 100 µM | [14] > 100 µM | [15] > 100 µM | [16] > 100 µM
